What is called ED50 is the midpoint of the dose-response relation.

Assay [1] deals with Streptococcus pyogenes C203. Description: mouse septicemia (in vivo test). Conditions: CD-1 mice infected intraperitoneally; antibiotics administered subcutaneously immediately after infection; calculated on the 7th day from surviving animals (Spearman and Kaerber). How it is done:
In these in vivo tests control and treatment groups contained five CD-1 mice (Charles River) weighting 18-22 g. They were infected intraperitoneally with 0.5 ml of bacterial suspension prepared by diluting an overnight culture of Streptococcus pyogenes C203 with sterile peptonized saline. Inocula were adjusted so that untreated animals died of septicemia within 48 hours. Antibiotics were administered subcutaneously immediately after infection. On the 7th day, the ED50 in mg/kg was calculated by the method of Spearman and Kaerber (D.J. Finney, "Statistical Methods in Biological Assay", Griffin, page 524, 1952) from the percentages of surviving animals at each dose. The results of the in vivo testing of representative compounds of the invention are summmarized in Table II below: Table II

The subject of assay [2] is coagulase-negative staphylococci. As to the kind of experiment: in vitro antibacterial activity (MIC, microbroth dilution). It counts as cell-based. Conditions: compared with the parent compounds (X vs I and VIII vs VII). (In broth dilution the organism is exposed to a series of concentrations in liquid medium.)

Take `CN[C@H]1C(=O)N[C@@H]2Cc3ccc(cc3)Oc3cc4cc(c3O)Oc3ccc(cc3Cl)[C@@H](O)[C@@H]3NC(=O)[C@H](NC(=O)[C@@H]4NC(=O)[C@@H](NC2=O)c2cc(cc(O)c2Cl)Oc2cc1ccc2O)c1ccc(O)c(c1)-c1c(O)cc(O)cc1[C@@H](C(=O)O)NC3=O` [A 40926 aglycone, reference compound]: the ED50 in assay [1] is listed as 6.2 mg/kg.

Consider “Demannosyl A 40926 complex 6^B-(2-bromoethyl) ester [compound VIII]”, for which the “in vitro activity against coagulase-negative staphylococci” value in assay [2] was “better in vitro activity”. The ED50 in assay [1] is listed as 0.31 mg/kg.

With “O^42-demannosyl A 40926 6^B-methyl ester [compound X]”, the “in vitro activity against coagulase-negative staphylococci” value in assay [2] is “better in vitro activity”. In assay [1], the ED50 is recorded as 0.31 mg/kg.

In the case of “antibiotic A 40926 complex 6^B-(2-hydroxyethyl) ester [compound V]”, the ED50 in assay [1] is listed as 0.18 mg/kg.

“antibiotic A 40926 complex 6^B-monoethyl ester [compound II]”: the ED50 in assay [1] was 0.23 mg/kg.

Regarding “antibiotic A 40926 complex 6^B-monomethyl ester [compound I]”, the ED50 in assay [1] is given as 0.18 mg/kg.

These data come from patent publication EP0578644B1, “ANTIBIOTIC A 40926 ESTER DERIVATIVES” (GRUPPO LEPETIT S.p.A., priority 1991, dated 1992).
